# Values joined by “and” are separate entries in the source; they are usually repeats but may differ in a detail not shown here. Equal values may be shown once. Read-outs that look alike come from different tables or passages of the source. Marks after values point to notes of the source that are not given here.
# Columns and labels:
# B16 Melanoma = type: in vivo, B6D2F1 mice
# MCF-7/Adr = assay: cells; type: cell-based, human; conditions: for folds of resistance (IC50 ratio vs parent cell line) / IC50: Table 1C; for folds of resistance (IC50 ratio vs parent cell line): MCF-7/Adr vs MCF-7; for IC50: SRB, 72 h, read-out: IC50
# Description: Cultures were fixed with trichloroacetic acid and then stained for 30 min with 0.4% suforhodamine B dissolved in 1% acetic acid. Unbound dye was removed by acetic acid washes, and the protein-bound dye was extracted with an unbuffered Tris base (tris(hydroxy-methyl)aminomethane) for determination of absorbance at 570 nm in a 96-well microtiter plate reader. The experiments were carried out in duplicate. Each run entailed six to seven concentrations of the tested drugs.
# [1] = test system: human neuroblastoma SK-N-As; assay: SRB cytotoxicity, SK-N-As; type: cell-based; conditions: Table 1C; SRB, 72 h; read-out: IC50
# Description: The DC-3F hamster lung fibroblast cell line and its actinomycin D-selected sublines (DC-3F/ADII and DC-3F/ADX) were obtained from the Memorial Sloan-Kettering Cancer Center (MSKCC).
# The drug-resistant cell lines were continuously cultured in the presence of the selecting agent, AD, DX, VBL or VM to maintain the drug resistant phenotypes. […] All cells were cultured in RPMI 1640-10% FBS at 37° C. 5% CO2 (see below).
# The cytotoxicity of the drug toward the monolayer cell cultures (such as DC-3F, MCF-7, SK-N-As and sublines) was determined in 96-well microtiter plates by the SRB method as described by Skehan and co-workers (Skehan, P., et al., J. Natl. Cancer Inst. 1990, 82, 1107-1112) for measuring the cellular protein content. Cultures were fixed with trichloroacetic acid and then stained for 30 min with 0.4% suforhodamine B dissolved in 1% acetic acid. Unbound dye was removed by acetic acid washes, and the protein-bound dye was extracted with an unbuffered Tris base (tris(hydroxy-methyl)aminomethane) for determination of absorbance at 570 nm in a 96-well microtiter plate reader. The experiments were carried out in duplicate. Each run entailed six to seven concentrations of the tested drugs. Data were analyzed with the median-effect plot (Chou, T.-C. & Talalay, P. T. (1984) Adv. Enzyme Regul. 22, 27-55) using a previously described computer program (Chou, J., & Chou T.-C. 1987, Dose-effect analysis with microcomputers: Quantitation of ED50, synergism, antagonism, low-dose risk, reception-ligand binding and enzyme kinetics, IBM-PC software and manual, Biosoft, Cambridge, U.K.).
# CCRF-CEM/VBL = CCRF-CEM/VBL xenograft in nude mice, i.v. 6 h infusion; type: in vivo
# Text: Treatment on days 19, 21, 23, 25, 27, 39, 41, 43, 45, 47 and 53.
# [2] = test system: human ovarian UL3-C tumor; assay: UL3-C ovarian tumor xenograft
# [3] = test system: HT-29 Colon Adenocarcinoma; assay: HT-29 xenograft; type: in vivo, nude mice
# [4] = Toxicity in normal nude mice; type: in vivo, athymic nude mice; conditions: for Number of mice died: QD × 4, i.p.; for decrease in lymphocytes: EpoB 0.6 mg/kg or dEpoB 25 mg/kg, QDx4, i.p., preliminary; for mice died / survived: desoxyepothilone B 25 mg/kg QDx4 i.p.; for mice died of toxicity: epothilone B 0.6 mg/kg QDx4 i.p.
# Description: For in vivo studies, paclitaxel in Cremophor-EtOH was further diluted with DMSO as needed. Vinblastine sulfate (Velban) (Eli Lilly & Co. Indianapolis, Ind.), and doxorubicin or adriamycin HCl (DX or Adr) (Pharmacia, Columbus, Ohio) in saline were diluted with DMSO as needed. DMSO was used as a vehicle for epothilones. Each mouse received ≦40 μL DMSO in all experiments.
# The toxicity of EpoB and dEpoB was compared in normal athymic nude mice on the daily i.p. schedule. EpoB at 0.6 mg/kg, QDX4, i.p. led to lethality in all eight mice. […] Similar leukopenia was found with paclitaxel. Some obstructive fecal mass in the large intestine was noted following Epo treatments in the preliminary study.
# [5] = test system: DC-3F hamster lung fibroblast cell line; assay: SRB cytotoxicity, DC-3F; type: cell-based; conditions: Table 1C; SRB, 72 h; read-out: IC50
# Procedure, shortened: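 Monolayer cultures grown in RPMI 1640-10% FBS at 37 °C, 5% CO2, with resistant sublines kept under their selecting agent. Cytotoxicity determined by SRB protein staining (TCA fixation, absorbance 570 nm) in duplicate at six to seven drug concentrations. ED50 obtained by median-effect plot analysis.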
# [6] = test system: Human CCRF-CEM/VBL Xenograft; assay: CCRF-CEM/VBL xenograft in scid mice; type: in vivo, CB-17 scid mice
# [7] = 10 mg/kg QD × 8 from day 1, day 5
# [8] = 10 mg/kg QD × 8 from day 1, day 7
# [9] = 10 mg/kg QD × 8 from day 1, day 9
# [10] = 10 mg/kg QD × 8 from day 1, day 11
# [11] = CCRF/VBL Leukemia, dEpoB 30 mg/kg Q2D x 5, Taxol 15 mg/kg Q2D x 5
# [12] = UL3-C Ovary, dEpoB 30 mg/kg Q2D x 5, Taxol 15 mg/kg Q2D x 5
# [13] = dEpoB 30, Taxol 20 mg/kg, i.v. infusions on day 19,21,23,25,27
# [14] = dEpoB 30 mg/kg Q2D x 6, Taxol 15 mg/kg Q2D x 6
# [15] = 0.4 mg/kg QD × 6 from day 1, day 5
# [16] = 0.4 mg/kg QD × 6 from day 1, day 9
# [17] = 0.4 mg/kg QD × 6 from day 1, day 11
# [18] = 0.8 mg/kg QD × 5 from day 1, day 5
# [19] = 0.8 mg/kg QD × 5 from day 1, day 7
# [20] = 0.8 mg/kg QD × 5 from day 1, day 11
# [21] = dose 0.7 i.p. QD d7-10,14,15, day 12
# [22] = dose 0.7 i.p. QD d7-10,14,15, day 17
# [23] = dose 0.7 i.p. QD d7-10,14,15, day 22
# [24] = dose 1.0 i.p. QD d7-10,14,15, day 12
# [25] = dose 1.0 i.p. QD d7-10,14,15, day 17
# [26] = dose 1.0 i.p. QD d7-10,14,15, day 22
compound,measurement,setting,value
"C/C1=C/C[C@@H](/C(C)=C/c2csc(C)n2)OC(=O)C[C@H](O)C(C)(C)C(=O)[C@H](C)[C@@H](O)[C@@H](C)CCC1 [Desoxyepothilone B, desoxyepothilone B]",# Mice Died,B16 Melanoma; 10 mg/kg QD × 8 from day 1,0/6
same,Average weight change,"B16 Melanoma; 10 mg/kg QD × 8 from day 1, day 3",-0.7 g
same,Average Tumor Volume (T/C),B16 Melanoma; [7],0.23
same,Average weight change,B16 Melanoma; [7],-0.9 g
same,Average Tumor Volume (T/C),B16 Melanoma; [8],0.22
same,Average weight change,B16 Melanoma; [8],-1.1 g
same,Average Tumor Volume (T/C),B16 Melanoma; [9],0.51
same,Average weight change,B16 Melanoma; [9],-1.5 g
same,Average Tumor Volume (T/C),B16 Melanoma; [10],0.28
same,Average weight change,B16 Melanoma; [10],-0.3 g
same,mice died,B16 Melanoma; 10 mg/kg QDx8 from day 1 (FIG. 44),0 of 8
same,# Mice Died,"B16 Melanoma; 20 mg/kg QD1-4,7-8",0/6
same,Average weight change,"B16 Melanoma; 20 mg/kg QD1-4,7-8, day 3",-1.3 g
same,Average Tumor Volume (T/C),"B16 Melanoma; 20 mg/kg QD1-4,7-8, day 5",0.59
same,Average weight change,"B16 Melanoma; 20 mg/kg QD1-4,7-8, day 5",-2.2 g
same,Average Tumor Volume (T/C),"B16 Melanoma; 20 mg/kg QD1-4,7-8, day 7",0.63
same,Average weight change,"B16 Melanoma; 20 mg/kg QD1-4,7-8, day 7",-1.3 g
same,Average Tumor Volume (T/C),"B16 Melanoma; 20 mg/kg QD1-4,7-8, day 9",0.58
same,Average weight change,"B16 Melanoma; 20 mg/kg QD1-4,7-8, day 9",-1.6 g
same,Average weight change,"B16 Melanoma; 20 mg/kg QD1-4,7-8, day 11",-0.8 g
same,Therapeutic effect Rank Order,"B16 Melanoma; mouse, in vivo, ip",dEpoB > Taxol ® >> EpoB
same,fold resistance vs parent MCF-7,"MCF-7/Adr; MCF-7/Adr cells, listed as dEpoB",2.4 fold
same,folds of resistance (IC50 ratio vs parent cell line),MCF-7/Adr,(2.4x)
same,IC50,MCF-7/Adr,7.1 nM
same,IC50,[1],21 nM
same,Therapeutic effect Rank Order,"CCRF-CEM/VBL; CCRF-CEM/VBL, i.v. infusion",dEpoB >>> Taxol ®
same,Lowest Average Tumor Size (T/C),CCRF-CEM/VBL; [11],0 T/C
same,Tumor Disappearance,CCRF-CEM/VBL; [11],2/2
same,Therapeutic Effects dEpoB vs Taxol,"CCRF-CEM/VBL; CCRF/VBL Leukemia, dEpoB 30 mg/kg Q2D x 5 vs Taxol 15 mg/kg Q2D x 5",>>>
same,Lowest Average Tumor Size (T/C),[2]; [12],0.03 T/C
same,Tumor Disappearance,[2]; [12],0
same,Therapeutic Effects dEpoB vs Taxol,"[2]; UL3-C Ovary, dEpoB 30 mg/kg Q2D x 5 vs Taxol 15 mg/kg Q2D x 5",≧
same,"Average Body Weight (change), Day 33",[2]; [13],-2.7 g
same,"Average Body Weight Change, Day 27",[2]; [13],-1.5 g
same,"Average Body Weight Change, Day 29",[2]; [13],-4.0 g
same,"Average Body Weight Change, Day 31",[2]; [13],-3.6 g
same,"Average Tumor Size (T/C), Day 27",[2]; [13],0.19 T/C
same,"Average Tumor Size (T/C), Day 29",[2]; [13],0.13 T/C
same,"Average Tumor Size (T/C), Day 31",[2]; [13],0.03 T/C
same,"Average Tumor Size (T/C), Day 33",[2]; [13],0.03 T/C
same,"Average Body Weight, Day 19","[2]; initial weight, dEpoB 30, Taxol 20 mg/kg, i.v. infusions on day 19,21,23,25,27",30.0 g
same,Lowest Average Tumor Size (T/C),[3]; [14],0.02 T/C
same,Tumor Disappearance,[3]; [14],0
same,Therapeutic Effects dEpoB vs Taxol,[3]; dEpoB 30 mg/kg Q2D x 6 vs Taxol 15 mg/kg Q2D x 6,≦
same,Therapeutic effect Rank Order,[3]; i.v. infusion,Taxol ® ≧ dEpoB
same,Died,"[4]; 25 mg/kg QD × 4, 6 mice",0
same,Disappearance Duration,"[4]; 25 mg/kg QD × 4, 6 mice",0
same,Number of mice died,"[4]; 25 mg/kg, 6 mice",0
same,decrease in lymphocytes,[4],43%
same,body weight course,"[4]; dEpoB 25 mg/kg daily i.p. for 4 days, listed as dEpoB",maintained approximately the same average body weight
same,body weight course,"[4]; dEpoB 25 mg/kg daily i.p. for 4 days, listed as desoxyepothilone B",no reduction in average body weight
same,mice died / survived,[4]; 6 mice,all six mice survived
same,mice died / survived,"[4]; 6 mice, listed as dEpoB",zero of six
same,IC50,[5],0.97 nM
"C/C(=C\c1csc(C)n1)[C@@H]1C[C@@H]2O[C@]2(C)CCC[C@H](C)[C@H](O)[C@@H](C)C(=O)C(C)(C)[C@@H](O)CC(=O)O1 [Epothilone B, epothilone B]",# Mice Died,B16 Melanoma; 0.4 mg/kg QD × 6 from day 1,1/8
same,Average weight change,"B16 Melanoma; 0.4 mg/kg QD × 6 from day 1, day 3",-0.2 g
same,Average Tumor Volume (T/C),B16 Melanoma; [15],1.08
same,Average weight change,B16 Melanoma; [15],-0.6 g
same,Average weight change,"B16 Melanoma; 0.4 mg/kg QD × 6 from day 1, day 7",-1.1 g
same,Average Tumor Volume (T/C),B16 Melanoma; [16],1.27
same,Average weight change,B16 Melanoma; [16],-3.4 g
same,Average Tumor Volume (T/C),B16 Melanoma; [17],1.07
same,Average weight change,B16 Melanoma; [17],-3.9 g
same,mice died of toxicity,B16 Melanoma; 0.4 mg/kg QDx6 from day 1 (FIG. 44),1 of 8
same,Average weight change,"B16 Melanoma; 0.8 mg/kg QD × 5 from day 1, day 3",0 g
same,Average Tumor Volume (T/C),B16 Melanoma; [18],0.57
same,Average weight change,B16 Melanoma; [18],-0.8 g
same,Average Tumor Volume (T/C),B16 Melanoma; [19],0.89
same,Average weight change,B16 Melanoma; [19],-3.1 g
same,Average weight change,"B16 Melanoma; 0.8 mg/kg QD × 5 from day 1, day 9",-4.7 g
same,Average Tumor Volume (T/C),B16 Melanoma; [20],0.21
same,Average weight change,B16 Melanoma; [20],-4.7 g
same,mice died,B16 Melanoma; 0.8 mg/kg QDx5 from day 1 (FIG. 44),5 of 8
same,folds of resistance (IC50 ratio vs parent cell line),MCF-7/Adr,(5.4x)
same,IC50,MCF-7/Adr,2.7 nM
same,IC50,[1],4 nM
same,Died,"[4]; 0.6 mg/kg QD × 4, 8 mice",8
same,Disappearance Duration,"[4]; 0.6 mg/kg QD × 4, 8 mice",8
same,Number of mice died,"[4]; 0.6 mg/kg, 8 mice",8*
same,body weight course,[4]; EpoB 0.6 mg/kg QDx4 i.p.,steady decreases in body weight until death
same,decrease in lymphocytes,[4],43%
same,mice died of toxicity,[4]; 8 mice,all eight and 8 of 8
same,mice died of toxicity,"[4]; 8 mice, listed as EpoB",all eight
same,reduction in average body weight,[4]; epothilone B 0.6 mg/kg i.p. for 4 days,33%
same,mice died of drug toxicity,"[6]; Epo B dose 1.0 i.p., 7 mice, day 17",^6.One mouse died of drug toxicity on day 17.
same,Average weight change,"[6]; dose 0.7 i.p. QD d7-10,14,15, day 7",+0.1
same,Average tumor volume (control = 1.00),[6]; [21],0.32
same,Average weight change,[6]; [21],−0.7
same,Average tumor volume (control = 1.00),[6]; [22],0.40
same,Average weight change,[6]; [22],−1.0
same,Average tumor volume (control = 1.00),[6]; [23],0.33
same,Average weight change,[6]; [23],−0.2
same,Average weight change,"[6]; dose 1.0 i.p. QD d7-10,14,15, day 7",−0.2
same,Average tumor volume (control = 1.00),[6]; [24],0.41
same,Average weight change,[6]; [24],−1.3
same,Average tumor volume (control = 1.00),[6]; [25],0.27
same,Average weight change,[6]; [25],−2.1
same,Average tumor volume (control = 1.00),[6]; [26],0.31
same,Average weight change,[6]; [26],−0.5
same,IC50,[5],0.6 nM

# From patent publication US6603023B2 (priority 1996, dated 2003)
